Laboratory results taken from patent US5869494A, “Uses for barbituric acid analogs” (priority 1997, dated 1999).

Tested on: Daudi human lymphoma cells
Test: Cytotoxicity for lymphoma cells (Daudi)
Format: cell-based
Conditions: Homo sapiens, Daudi, 150 μg/ml, time not stated; read-out: cell kill
Description: In the following examples, tumor cells were treated with varying concentrations of compounds C1, C2, C4 or C5 dissolved in absolute ethanol. To limit any non-specific toxicity, the final concentration of ethanol was not allowed to exceed 0.5%. Stock concentrations of 5 mg/ml or 20 mg/ml were used. Viability of cells was determined in some studies by the trypan blue dye exclusion method. In other studies, cell viability/proliferation activity was determined by MTT assay by using a kit obtained from Promega, (Promega Corp., Madison, Wis. 53711). For this assay, a 100 μl cell suspension containing 5-10^3 monolayer cells or 1×10^5 suspension cells was placed in the wells of a 96-well microtiter plate. After overnight incubation, cells were treated with different concentrations of the test compound. Control wells received vehicle only. After 24, 48, 72 or 96 h of incubation, 50 μl of MTT dye solution was added. After 4 h of incubation at 37° C., 100 μl of solubilization/stop solution was added. After another h of incubation, cells were mixed using a multi-channel pipet and the absorption of the dye color was recorded at 570 nm using a plate reading absorption spectrophotometer.
The viability of the cells was
Compounds C4 and C5 were also tested for toxicity against human lymphoma Daudi cells.

Row | SMILES | cytotoxicity at 150 µg/mL
1 | O=C1CC(=O)NC(=S)N1 [Compound C4] | < 20%
2 | CN1C(=O)CC(=O)N(C)C1=S [Compound C5] | < 20%
